As usually defined, the melting point is the temperature of the solid-liquid transition.

This note sets out measurements from a melting point compilation (Tetko et al.; mined from patent text by program, amines drawn as free bases though some values may be those of a salt).

As to `O=C(O)c1cc(NCc2ccc([N+](=O)[O-])cc2)ccc1O`, the melting point was 211 to 212 °C. On to `O=c1ccn(CCO)c(C(O)c2ccccc2)c1OCc1ccccc1` (single isomer, unassigned; (+)), for which the melting point was 169 to 170 °C. `Cc1noc(C)c1-c1ncccc1OC1SCC(O)C(O)C1O` (stereo unspecified) registered a melting point of 112 °C. Turning to `CCN(CC)c1ccc(-c2cc(-c3ccc(C(=O)O)cc3)ccc2O)cc1C(C)(C)C`, the melting point was 190 °C. For the molecule `O=C(Nc1ccccc1S(=O)(=O)c1ccccc1)N[C@@H](Cc1ccc(Nc2nccc3ccncc23)cc1)C(=O)O`, the melting point was 184 °C. For the molecule `CCC(O)(c1ccc(O)cc1)c1cccc(Cl)c1` (stereo unspecified), the melting point lay in the range of 132 to 134 °C. For the molecule `Cn1c2c(c3cccc(OCc4ccccc4)c31)C(=O)NCC2`, the melting point was 199 to 201 °C.

For `CCOC(=O)c1cn(-c2nc3ccccc3s2)cn1`, the melting point was 131 to 133 °C. On to `COc1ccccc1CNC(=O)c1ccc2nc(N[C@@H]3CCc4ccccc43)ccc2c1`, for which the melting point was determined as 168 °C. To `Cc1cc(N)cnc1Oc1ccc(Cl)c(C(F)(F)F)c1` belongs 92 to 94 °C; to `O=C(Nc1cc(F)c(N2CC(=O)N(COC3CCCCO3)C2)c(F)c1)OCc1ccccc1` (stereo unspecified), 116 to 118 °C. In the case of `CC(=O)NC1C(O)OC(CO)C(O)C1OC(C)C(=O)NC(C)C(=O)NC(CCC(=O)O)C(N)=O` (stereo unspecified), the melting point lay within 150 to 151 °C. `CCCCCCCCCC(=O)OC(=C(OC(=O)CCCCCCCCC)c1ccccn1)c1ccccn1` registered a melting point of 89 to 90 °C.

Take `COc1ccc(C2=NN(C3CCN(S(=O)(=O)c4ccccc4OC(F)(F)F)CC3)C(=O)C(C)(C)C2)cc1OC`: the melting point was in the range of 143 to 144 °C.

The molecule `O=C(C(=Cc1cccc(C(F)(F)F)c1)C(=O)C1CC1)C1CC1` gave a melting point of 56 to 58 °C. The molecule `CCOC(=O)Cn1c(C(=O)NCc2nnc(CO)n2-c2sc(CC)cc2C(=O)c2ccccc2Cl)cc2ccccc21` registered a melting point of 92 to 96 °C.

With `COc1ccc(Oc2ncc(Br)cn2)cc1`, the melting point came to 92 °C. In turn, `CCc1nccc2[nH]c(=O)ccc12` yielded a melting point of 186 to 188 °C.

Molecule `COc1cnc(N)c2ccccc12` registered a melting point of 112 to 114 °C. Then `CC(C)(Cc1ccc2oc(-c3nc(C(C)(C)C)cs3)cc2c1)C(=O)O`, with 155 to 157 °C. Take `O=S1(=O)N=CN(C2CCCC2)c2ccc(Cl)cc21`: the melting point lay in the range of 218 to 220 °C. Take `CC(C)(C)c1cc(Cc2c(S)ccc3ccccc23)cc(C(C)(C)C)c1O`: the melting point was 30 °C. `CC(=O)OCc1nc(C(CN(C(C)=O)C(C)(C)C)OC(C)=O)ccc1OC(C)=O` (stereo unspecified): the melting point lay in the range of 60 to 64 °C. `CC(C)Sc1ccoc1C(=O)Nc1nnn[nH]1` showed a melting point of 201 to 203 °C. `O=C1c2c(O)cccc2C(SCCO)c2cccc(O)c21` yielded a melting point of 146 to 147 °C. Then `O=[N+]([O-])c1ccc2c(Br)cc3nc(O)c(O)nc3c2c1`, with more than 300 °C. Turning to `CCSc1cc(C#N)c(Oc2ccc(Cl)c(Cl)c2)cn1`, the melting point was 79 to 81 °C.

Turning to `N#Cc1ccc(C(=O)Nc2nc(-c3ccco3)c(C(=O)C3CCOCC3)s2)o1`, the melting point was 222 to 223 °C.

Molecule `CCCc1c[nH]cc2c(=O)n(-c3ccc(OC)cc3)nc1-2` displayed a melting point of 165 °C. Molecule `CC(C)(C)NC(=O)OC1CCN(c2cccc(C(F)(F)F)c2)C1=O` (stereo unspecified) showed a melting point of 115 to 117 °C. To `CCN(CC)CCOc1ccc(Nc2ncc3c(n2)N(C)C(=O)N(c2c(C)cccc2C)C3)cc1` belongs 58 °C; to `O=S1(=O)c2cccc3cccc(c23)N1CCCN1CCC(c2ccccc2)(c2ccccc2)CC1`, 168 °C. On to `CCCc1nc(-n2cccc2C(=O)C(F)(F)F)c(C#N)[nH]1`, for which the melting point was in the range of 104 to 105 °C. The molecule `Cc1cccc(NC(=O)NC(Cc2ccccc2)C(=O)N(CC(=O)OC(C)(C)C)c2ccccc2)c1` (racemic) showed a melting point of 198 °C. To `CC(=O)C1=CC=C(C(C)(C)OO)C1` belongs 82 to 84 °C. `CS(=O)(=O)c1ccc(-c2sc(C(F)(F)F)nc2-c2ccc(F)cc2)cc1` registered a melting point of 168 to 170 °C.

As for `Cc1oc(-c2ccccc2)nc1COc1cc(COc2nn(C)cc2CC(=O)O)on1`, the melting point fell in the range of 149 to 150 °C. In turn, `COc1cccc(OC)c1C(=O)P1(=O)Oc2ccccc2-c2ccccc21` (stereo unspecified) returned a melting point of 96 to 98 °C. As for `CCC(CC)(CC)n1ncc(C(=O)NC)c1C#N`, the melting point fell in the range of 85 to 87 °C. `CC1(C)[C@H](Cc2noc(C(F)(F)F)n2)CC[C@]1(C)NCC(=O)N1C[C@@H](F)C[C@H]1C#N` displayed a melting point of 130 to 131 °C. The molecule `c1ccc(-c2nc3c([nH]2)CCCC3CN2CCN(c3ncccn3)CC2)cc1` (stereo unspecified) showed a melting point of 200 to 202 °C.

In the case of `COc1cccc(C(=O)Nc2ccc(S(N)(=O)=O)cc2)c1SSc1c(OC)cccc1C(=O)Nc1ccc(S(N)(=O)=O)cc1`, the melting point lay within 188 to 189 °C. Molecule `CCN(CCc1c[nH]c2ccc(F)cc12)C1COc2c(F)ccc(C(=O)NC)c2C1` (stereo unspecified) yielded a melting point of 125 °C.

Turning to `CC(=O)Nc1ccc2c(c1)CC(CC(=O)O)C2=O` (single isomer, unassigned; (-)), the melting point lay in the range of 190 to 192 °C.

`Nc1cccc(C(=O)Nn2cnnn2)c1` registered a melting point of 281 °C. Turning to `CCCS(=O)(=O)c1cc([C@H]2CC[C@H](c3cc(OC)c(OC)c(OC)c3)O2)cc(OC)c1OCc1ccccc1` (relative stereo), the melting point lay in the range of 176 to 177 °C.

Regarding `Nc1nc(Nc2ccccc2)c2[nH]cnc2n1`, the melting point is 126 °C. In turn, `CCC(O)C1C(N2CCN(C)CC2)=Nc2ccccc2N=C1N1CCN(C)CC1` (stereo unspecified) returned a melting point of 163 to 166 °C.

`CCN(C)c1ccc(Cn2nnc(-c3ccc(OC(=O)C(C)(C)C)cc3)n2)cc1` registered a melting point of 122 to 125 °C. In the case of `COCOc1ccc2sc(C=O)cc2c1`, the melting point was 81 to 82 °C. On to `CCN(Cc1cc(Br)ccc1OCc1ccccc1)c1ccc(C(=O)NCc2cccnc2)cc1`, for which the melting point lay within 119 to 121 °C. Consider `CCOC(=O)C(CCc1ccccc1)NC1CSC(c2cccs2)CN(CC(=O)O)C1=O` (stereo unspecified), for which the melting point was found to be 168 °C. Turning to `CS(=O)(=O)c1ccc(-c2cnn(CC(F)(F)F)c(=O)c2NC2CCCC2)cc1`, the melting point lay in the range of 134 to 139 °C. Turning to `COc1cccc2c1CC(C(=O)NCCOc1ccc(C(=O)O)cc1)N2S(=O)(=O)c1ccc(-c2ccc(F)cc2Cl)cc1` (stereo unspecified), the melting point is 190 to 204 °C. Then `Cc1cccc(-c2n[nH]cc2-c2ccc(F)c(-c3ccc(S(N)(=O)=O)cc3)c2)n1`, with 115 to 118 °C. Then `CC1(C)NC(=O)N(CC(CS(=O)(=O)c2ccc(-c3cccc(CC#N)c3)cc2)N(O)C=O)C1=O` (stereo unspecified), with 186 to 189 °C; and `CCCc1c(-c2ccncc2)[nH]c(-c2ccncc2)c1C(C)=O`, with 111 to 113 °C; and `Cc1c(NC(=O)c2cccc(Oc3ccccc3)c2)ccc2cc(CN3CCCC3)cnc12`, with 147 to 148 °C. As to `O=C(NNc1ccc([N+](=O)[O-])cc1)c1ccccc1`, the melting point lay in the range of 194 to 195 °C. For `CS(=O)(=O)N(CCO)C1CCC(Nc2nccc(-n3nnc4ccccc43)n2)CC1` (stereo unspecified), the melting point is 230 to 231 °C.

In turn, `COc1c(F)cccc1-c1cnn2ccc(N3CCN(C(=O)OC(C)C)CC3)nc12` gave a melting point of 52 to 53 °C. Then `CC(C)(C)OC(=O)C(N)C1NC(C(=O)OCc2ccccc2)C2(CCN(Cc3ccccc3)CC2)S1` (stereo unspecified), with 140 to 141 °C; and `O=C(Nc1ccc(F)nc1)C1CC1`, with 116 to 117 °C; and `CCCCCCCCCCCCCCCCCCOc1c(OCC(CC)CCCC)ccc2c1C(=O)c1ccccc1C2=O` (stereo unspecified), with 61 to 68 °C. As to `CSC1NC(N)=CC(=O)N1C` (stereo unspecified), the melting point is 255 °C. `NC(=O)C(O)c1cc(F)cc2cccnc12` (stereo unspecified): the melting point is 169 to 171 °C. Molecule `CC(=O)C1=C(C)CC2C3CCC4CC5OC5CC4(C)C3C(=O)CC12C` (stereo unspecified) had a melting point of 155 to 157 °C. To `CCc1nn(CCNC(=O)COC)c(CC)c1Oc1cc(Cl)cc(Cl)c1` belongs 75 to 76 °C; to `Cn1c(C(F)(F)F)cc(=O)n(-c2cc(OC(=O)OCC(Cl)(Cl)Cl)c(Cl)cc2F)c1=O`, 140 to 142 °C; to `O=C(NCCCN1CCCCC1)c1ccc(-c2ccc3nnn(Cc4ccc5ncccc5c4)c3n2)cc1F`, 135 to 137 °C. As for `COc1ccccc1NC(=O)CCCC(C)=O`, the melting point was in the range of 101 to 102 °C. In turn, `CC(=O)Nc1cc(C)c(C)nc1C` registered a melting point of 89 to 92 °C. With `O=C(O)C1(C(F)(F)F)NNC2=C1CCCC2` (stereo unspecified), the melting point is 183 to 184 °C. Turning to `CCCCn1c(Nc2cc(Cl)cc(C(F)(F)F)c2)nc(C(F)(F)F)cc1=O`, the melting point is 157 to 158 °C. To `CCOC(=O)c1c(C)cc(OC)cc1C(=O)O` belongs 142 to 143 °C. To `CC(=NOCCOc1ccc(CC2SC(=O)NC2=O)cc1)c1ccc2ccccc2n1` (stereo unspecified) belongs 162 to 163 °C; to `COc1ccc(Cl)c2c1[nH]c1c(C(=O)O)cccc12`, 328 °C. `Cc1cc(-c2nc3cccnn3c2-c2ccnc(NC(=O)Nc3cccnc3)c2)ccc1F` registered a melting point of 233 to 234 °C.

`CC(Oc1ccc(C(F)(F)F)cc1)c1ccnc2ncnn12` (stereo unspecified) returned a melting point of 100 to 102 °C. In the case of `CC(=O)OC1CC(C)(C)N(OC(=O)C23CC4CC(CC(C4)C2)C3)C(C)(C)C1`, the melting point lay within 132 to 134 °C. In the case of `CC(C)CC(C)(C#N)N=NC(C)(C#N)CC(C)C` (stereo unspecified), the melting point is 52 to 56 °C. To `NS(=O)(=O)c1ccc(NC(=O)Nc2ccc(Br)cc2)cc1` belongs 269 to 271 °C; to `CCn1cc(C(=O)O)c(=O)c2cc(F)c(N3CCN(C)C(C)C3)cc21` (stereo unspecified), 244 to 246 °C. Then `Cc1ccc2[nH]c(C)c(-c3ccc(F)cc3)c2c1`, with 124 to 128 °C. `O=C1CCc2ccc(OCCCCOc3ccc4c(c3)NC(=O)CC4)cc2N1` gave a melting point of 218 °C.

With `COc1ccc(-c2cc(CO)c(=O)n(Cc3ccc(F)cc3)n2)cc1F`, the melting point is 127 to 130 °C.
